Experimental data as given in patent US9873693B2 (Sunesis Pharmaceuticals, Inc., priority 2006, dated 2018).

Key:
[1] = target: phosphorylated PDK1 (Homo sapiens (Human), UniProt O15530); assay: PDK1 kinase assay (coupled PDK1/AKT/FAM-crosstide, IMAP); type: biochemical; settings: 0.5 nM phosphorylated PDK1, 24 μM ATP; read-out: Inhibition of phospo-PDK1 in vitro IC50
[2] = target: dephosphorylated PDK1 (Homo sapiens (Human), UniProt O15530); assay: as above; type: biochemical; settings: 25 nM un-phosphorylated PDK1, 24 μM ATP; read-out: Inhibition of dephospo-PDK1 in vitro IC50
Sequence of dephosphorylated PDK1 (O15530 51-360): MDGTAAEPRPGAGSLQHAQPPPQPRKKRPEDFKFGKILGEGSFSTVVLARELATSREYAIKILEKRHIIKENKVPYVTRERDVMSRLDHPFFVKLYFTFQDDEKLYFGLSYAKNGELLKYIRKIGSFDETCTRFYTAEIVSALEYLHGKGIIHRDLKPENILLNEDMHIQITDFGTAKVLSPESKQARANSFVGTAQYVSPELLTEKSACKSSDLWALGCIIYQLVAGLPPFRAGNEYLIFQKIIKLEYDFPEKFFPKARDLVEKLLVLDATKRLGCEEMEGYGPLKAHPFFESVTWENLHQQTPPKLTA
Description: A PDK1 kinase assay was performed as follows. PDK1 (amino acids 51-360) and AKT2 (amino acids 140-467 fused to PIFtide, amino acids […]) were expressed as N-terminally tagged GST fusion proteins in insect cells and purified to greater than 90% homogeneity. PDK1 protein was divided into two fractions, one of which was subsequently dephosphorylated. To generate dephosphorylated PDK1, the PDK1 was reacted with GST-tagged lambda-phosphatase in vitro. GST was subsequently cleaved proteolytically for both phosphorylated and dephosphorylated PDK1. Protein preparations were run on glutathione Sepharose columns to remove GST and GST-tagged lambda-phosphatase, if present. Phosphorylated PDK1 and dephosphorylated PDK1 were verified by mass-spectrometry. Enzyme activity was determined in a coupled PDK1/AKT/FAM-crosstide assay using either phosphorylated or unphosphorylated PDK1 and phosphorylation of FAM-crosstide was determined by standard IMAP protocol (Molecular Devices). For inhibition studies, compounds were titrated 3-fold in DMSO and diluted 40-fold into assay buffer (10 mM Tris HCl pH7.2; 10 mM MgCl2; 0.01% Triton X-100; 1 mM DTT) containing PDK1, AKT2, and FAM-crosstide. (final concentrations: 25 nM un-phosphorylated PDK1 or 0.5 nM phosphorylated PDK1, 30 nM unphosphorylated AKT2, and 100 nM crosstide substrate). The kinase reaction was initiated by adding ATP to a final concentration of 24 μM for both forms of PDK1 and incubated at 25° C. for 30 min. To detect assay product, the kinase reaction was combined with Progressive Binding Solution (1:600 Progressive Binding Reagent, 50% Buffer A, 50% Buffer B, Molecular Devices) in a 1:3 ratio. The mixture was incubated for 2 hours at 25° C. and the plate was scanned on an Analyst AD with excitation at 485 nm and emission at 530 nm. The fluorescence polarization value “P” is defined by the equation below. The value “mP” is generated by multiplying the P value for each reaction well by a factor of 1000. The value “ΔmP” for each well is the mP value for that well minus the mP value for the average negative control. P=(Fpar−Fperp)/(Fpar+Fperp) Eq.:
Where “par” is fluorescence intensity parallel to the excitation plane; and “perp” is fluorescence intensity perpendicular to the excitation plane. ΔmP values were plotted as a function of compound concentration and the data were analyzed with a 4-parameter fit using GraphPad Prism software.

[3] = tested on: phospho-akt (Thr308); assay: phospho-akt (Thr308) MSD ELISA in PC-3 cells; type: cell-based; settings: Homo sapiens, PC-3, 2 h, PC-3 cells, 2 hours, no serum; read-out: Inhibition of P308 Akt in cells using MSD EC50
Outline: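 Read-out is MSD electrochemiluminescence after lysate capture overnight at 4 degrees and 1 hr RT detection-antibody step. Before lysis, overnight-plated PC-3 cells received three-fold serial dilutions of inhibitor in serum-free medium, with DMSO-only high controls.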

Sequence of phosphorylated PDK1 (O15530 51-360): as above

Row | SMILES | IC50 [1] [nM] | IC50 [2] [nM] | EC50 [3] [nM]
1 | O=C(NCc1nc(-c2c[nH]c3ncccc23)cs1)c1cc(Cl)cn(Cc2ccc(Cl)cc2)c1=O [Cpd 273] | < 500 | < 500 | –
2 | O=C(NCc1ncc(-c2c[nH]c3ncccc23)o1)c1cccn(Cc2ccc(F)c(F)c2)c1=O [Cpd 120] | < 500 | < 500 | –
3 | NC(=O)Nc1ccc(OCCNC(=O)c2cccn(Cc3ccc(F)c(F)c3)c2=O)cc1 [Cpd 122] | 500 to 10000 | < 500 | –
4 | O=C(NCc1nc(-c2c[nH]c3ncccc23)cs1)c1cccn(Cc2cccc(Cl)c2)c1=O [Cpd 272] | < 500 | < 500 | –
5 | O=C(NCCOc1cc(F)c2[nH]c(=O)[nH]c2c1)c1cccn(Cc2ccc(F)c(F)c2)c1=O [Cpd 158] | 500 to 10000 | < 500 | –
6 | O=C(NS(=O)(=O)c1ccc(-c2c[nH]c3ncccc23)s1)c1cccn(Cc2ccc(F)c(F)c2)c1=O [Cpd 231] | 500 to 10000 | 500 to 10000 | –
7 | O=C(Nc1cccn(Cc2ccc(F)c(F)c2)c1=O)c1cccc(-c2c[nH]c3ncccc23)c1 [Cpd 288] | – | < 500 | –
8 | CCc1ccnc(NCCC#CCCNC(=O)c2cc(Cl)cn(Cc3cccc(Cl)c3)c2=O)n1 [Cpd 257] | < 500 | < 500 | –
9 | O=C(N[C@H](COc1ccc2[nH]c(=O)[nH]c2c1)C1CCOC1)c1cccn(Cc2cc(F)c(F)c(F)c2)c1=O (some centres unmarked) [Cpd 185] | < 500 | < 500 | –
10 | O=C(NCCCCCc1c[nH]c2ncccc12)c1cccn(Cc2cccc(Cl)c2)c1=O [Cpd 108] | 500 to 10000 | 500 to 10000 | –
11 | Nc1ncnc2[nH]nc(-c3cccc(CNC(=O)c4cccn(Cc5ccc(F)c(F)c5)c4=O)c3)c12 [Cpd 5] | < 500 | < 500 | –
12 | Nc1ccc(-c2cccc(CNC(=O)c3cccn(Cc4ccc(F)c(F)c4)c3=O)c2)cn1 [Cpd 214] | – | 500 to 10000 | –
13 | COc1ccnc(NCCCCCNC(=O)c2cccn(C(C)c3ccc(Cl)cc3)c2=O)n1 (centres unmarked) [Cpd 254] | 500 to 10000 | < 500 | –
14 | COc1ccnc(NCCCCCNC(=O)c2cccn(C(C)c3ccc(Cl)cc3)c2=O)n1 (centres unmarked) [Cpd 105] | 500 to 10000 | < 500 | –
15 | O=C1Cc2ccc(/C=C/CNC(=O)c3cc(I)cn(Cc4cc(F)c(F)c(F)c4)c3=O)cc2N1 [Cpd 178] | < 500 | < 500 | –
16 | O=C1CC(c2cccc(CNC(=O)c3cccn(Cc4ccc(F)c(F)c4)c3=O)c2)CN1 (centres unmarked) [Cpd 111] | 500 to 10000 | 500 to 10000 | –
17 | O=C(NCc1cccc(-c2ccc3nonc3c2)c1)c1cccn(Cc2ccc(F)c(F)c2)c1=O [Cpd 219] | > 10000 | 500 to 10000 | –
18 | O=C(NCCSc1ccc2[nH]c(=O)[nH]c2c1)c1cccn(Cc2ccc(F)c(F)c2)c1=O [Cpd 117] | 500 to 10000 | 500 to 10000 | –
19 | O=C(NCCOc1cc2[nH]c(=O)[nH]c2cc1F)c1cccn(Cc2ccc(F)c(F)c2)c1=O [Cpd 155] | 500 to 10000 | < 500 | –
20 | COc1ccnc(NCCC#CCCNC(=O)c2cccn(Cc3ccc(F)c(F)c3)c2=O)n1 [Cpd 263] | < 500 | < 500 | –
21 | O=C(NCc1cccc(-c2ccc3nsnc3c2)c1)c1cccn(Cc2ccc(F)c(F)c2)c1=O [Cpd 218] | > 10000 | 500 to 10000 | –
22 | O=C(NC1(c2nnc(-c3c[nH]c4ncccc34)o2)CC1)c1cccn(Cc2ccc(F)c(F)c2)c1=O [Cpd 281] | < 500 | < 500 | –
23 | O=C(Nc1cccc(-c2ccc3[nH]c(=O)[nH]c3c2)c1)c1cccn(Cc2ccc(F)c(F)c2)c1=O [Cpd 162] | 500 to 10000 | < 500 | –
24 | COc1ccnc(NCCC#CCCNC(=O)c2cccn([C@H](C)c3ccc(Cl)cc3)c2=O)n1 [Cpd 259] | < 500 | < 500 | –
25 | O=C(NCc1cccc(-c2c[nH]c3ncccc23)c1)c1cccc(Nc2ccccc2)n1 [Cpd 54] | < 500 | < 500 | –
26 | O=C(NCc1cccc(-c2cccc3[nH]ncc23)c1)c1cccn(Cc2ccc(F)c(F)c2)c1=O [Cpd 329] | – | 500 to 10000 | > 5000
